Reference: patent US20180216124A1, “METHOD OF PRODUCING PLASTID TRANSFORMANTS” (HONDA MOTOR CO., LTD., priority 2015, published 2018)

Assays:
switchgrass calluses [1] = assay: Sensitivity of switchgrass calluses to drugs: callus growth on PVC medium; assay type: cell-based
Experimental: (§1) Skins of mature seeds of switchgrass variety “Alamo” were removed by 60% (v/v) sulfate treatment, and a fungicide for seeds was used for sterilization. […] The seeds were cultured for a few months in the dark at 28° C. Then, grown calluses were classified as independent strains for each derived seed. Strains in which a compact callus expected to have a regeneration ability was grown were selected and cultured.
(§2) In order to develop a new screening method that is appropriate for plastid transformation, the calluses of the regeneration strains prepared in the above <1> were used to examine sensitivity of wild type plant cells to various drugs.

switchgrass calluses [2] = assay: Sensitivity of switchgrass calluses to drugs: plant (shoot) regeneration on PVS medium; assay type: cell-based; conditions: switchgrass callus on PVS medium
Experimental: as §1, §2

[3] = system: wild type switchgrass calluses; conditions: 28° C.
Experimental: In the sodium nitrite screening, in order to determine a screening concentration more effectively, wild type switchgrasses were cultured under sodium nitrite conditions of different concentrations, and the sensitivity of wild type cells to sodium nitrite was examined.
Specifically, a mass of 14 switchgrass calluses remained for each plate on PVC media and PVS media containing sodium nitrite having a concentration of 0, 0.25, 0.5, 0.6, 0.7, 0.8, 0.9, or 1.0 g/L, and three plates of each of which were prepared for each concentration condition. The PVC media were cultured in the dark at 28° C. and the PVS media were cultured under light at 28° C. for 4 weeks. After culture, the number of grown calluses was measured in the PVC media, and the number of calluses from which plants were regenerated was measured in the PVS media. The growth rate and the regeneration rate were calculated.

[4] = system: wild type of rice variety Nipponbare; conditions: MS-NK medium containing sodium nitrite 400 mg/L
Experimental: PSR1 genes were introduced into plastids of rice variety Nipponbare and rice variety Koshihikari and transformants were screened using sodium nitrite. Specifically, it was performed as follows. An MS-NK medium (Nishimura et al., Nature Protocols, 2006, Vol. 1, p. 2796-2802) used as a regeneration medium contained nitrate nitrogen, originally.

[5] = PVC media, dark, 4 weeks (FIG. 2A)
[6] = PVS media, light, 4 weeks (FIG. 2B)

C[C@@H](Oc1ccc(Oc2ncc(Cl)cc2F)cc1)C(=O)O [Clodinafop]
Callus growth: supression concentration (switchgrass calluses [1]): (>1.0 μM)

O=C(N[C@H](CO)[C@H](O)c1ccc([N+](=O)[O-])cc1)C(Cl)Cl [Cloramphenicol]
Callus growth: supression concentration (switchgrass calluses [1]): (>30 mg/L) | Shoot regeneration: supression concentration (switchgrass calluses [2]): (>15 mg/L)

CCCC(=NOCC)C1=C(O)CC(C2CCCSC2)CC1=O (centres unmarked) [Cycloxydim]
Callus growth: supression concentration (switchgrass calluses [1]): (>1.5 μM) | Shoot regeneration: supression concentration (switchgrass calluses [2]): (>0.1 μM)

CCCCOC(=O)C(C)Oc1ccc(Oc2ccc(C(F)(F)F)cn2)cc1 (centres unmarked) [Fluazifop-butyl]
Callus growth: supression concentration (switchgrass calluses [1]): (>1.0 μM) | Shoot regeneration: supression concentration (switchgrass calluses [2]): (>0.1 μM)

CN[C@@H]1[C@@H](O)[C@@H](O[C@@H]2[C@@H](O)[C@H](O[C@H]3O[C@H]([C@@H](C)O)[C@@H](O)[C@H](O)[C@H]3N)[C@@H](N)C[C@H]2N)OC[C@]1(C)O [G418]
Callus growth: supression concentration (switchgrass calluses [1]): (>25 mg/L) | Shoot regeneration: supression concentration (switchgrass calluses [2]): (>25 mg/L)

O=C(O)CNCP(=O)(O)O [Glyphosate]
Callus growth: supression concentration (switchgrass calluses [1]): (>0.1 mM) | Shoot regeneration: supression concentration (switchgrass calluses [2]): (>0.1 mM)

CC(Oc1ccc(Oc2ncc(C(F)(F)F)cc2Cl)cc1)C(=O)O (centres unmarked) [Haloxyfop]
Callus growth: supression concentration (switchgrass calluses [1]): (>1.0 μM)

NC[C@H]1O[C@H](O[C@H]2[C@H](O)[C@@H](O[C@H]3O[C@H](CO)[C@@H](O)[C@H](N)[C@H]3O)[C@H](N)C[C@@H]2N)[C@H](O)[C@@H](O)[C@@H]1O [Kanamycin]
Callus growth: supression concentration (switchgrass calluses [1]): (>200 mg/L) | Shoot regeneration: supression concentration (switchgrass calluses [2]): (>100 mg/L)

C[n+]1ccc(-c2cc[n+](C)cc2)cc1 [Methylviologen]
Callus growth: supression concentration (switchgrass calluses [1]): (>1.0 μM) | Shoot regeneration: supression concentration (switchgrass calluses [2]): (>1.0 μM)

CCc1cc(C)cc(CC)c1-c1c(OC(=O)C(C)(C)C)n2n(c1=O)CCOCC2 [Pinoxaden]
Callus growth: supression concentration (switchgrass calluses [1]): (>1.0 μM)

O=NO [Sodium nitrite]
Concentration at which callus growth was completely suppressed [3, 5]: ≥ 0.9 g/L | Concentration at which callus growth was sharply reduced [3, 5]: 0.7 g/L | Concentration at which plant regeneration was completely suppressed [3, 6]: 1.0 g/L | Concentration at which plant regeneration was sharply reduced [3, 6]: 0.8 g/L | Callus growth: supression concentration (switchgrass calluses [1]): (>800 mg/L) | Shoot regeneration: supression concentration (switchgrass calluses [2]): (>800 mg/L) | Regeneration ability of wild type rice [4]: had a regeneration ability

[H]/N=C(/N)N[C@H]1[C@H](O)[C@@H](O)[C@H](O[C@@H]2O[C@@H](C)[C@](O)(C=O)[C@H]2O[C@@H]2O[C@@H](CO)[C@H](O)[C@@H](O)[C@@H]2NC)[C@@H](N/C(N)=N\[H])[C@@H]1O [Streptomycin]
Shoot regeneration: supression concentration (switchgrass calluses [2]): (>400 mg/L)

CN(C)[C@@H]1C(O)=C(C(N)=O)C(=O)[C@@]2(O)C(O)=C3C(=O)c4c(O)cccc4[C@@](C)(O)[C@H]3C[C@@H]12 [Tetracycline]
Callus growth: supression concentration (switchgrass calluses [1]): (>40 mg/L) | Shoot regeneration: supression concentration (switchgrass calluses [2]): (>60 mg/L)

Bleocin
Callus growth: supression concentration (switchgrass calluses [1]): (>25 mg/L) | Shoot regeneration: supression concentration (switchgrass calluses [2]): (>10 mg/L)
